Measurements published in PubChem BioAssay AID1963959 (Molecular Pharmacology Branch, DTP, NCI, 2024).

System: T-47D spheroids with HUVEC/MSC, viability
Test: Anticancer human tumor T-47D cell line growth inhibition [PI3K];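 also: spheroids exposed to agents for seven days before reading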;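 as to viability, T/C: percent of DMSO vehicle control luminescence so 100% = untreated growth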
Details: for IC50: curve of first compound; for viability, T/C: stronger effect = lower value
Text: Combinatorial screen of targeted agents with the PI3K inhibitors inavolisib, alpelisib, duvelisib, and copanlisib in multi-cell type tumor spheroids
A high-throughput screen of multi-cell type tumor spheroids was designed to identify active combinations of targeted small molecules and PI3K pathway inhibitors. Complex spheroids include a stromal component modeled by human endothelial cells (HUVEC) and fibroblasts modeled by human mesenchymal stem cells (MSCs). The concentration ranges selected for each drug and investigational agent were based upon clinically achievable concentrations if the clinical Cmax of the agent was known.
Compounds. The drugs and investigational agents: inavolisib (NSC800729), alpelisib (NSC765974), duvelisib (NSC772469), copanlisib (NSC816437), ipatasertib (NSC767898), afuresertib (NSC778305), talazoparib (NSC767125), sapanisertib (NSC764658), selumetinib (NSC741078), tovorafenib (DAY101, NSC766906), vemurafenib (NSC761431), ravoxertinib (NSC781343), sotorasib (NSC818433), MRTX1133 (NSC 836407), abemaciclib (NSC 768073), palbociclib (NSC758247), venetoclax (NSC 766270), SY5609 (NSC837396), enzalutamide (NSC755605), and darolutamide (NSC825331), were obtained from the National Cancer Institute (NCI) Developmental Therapeutics Program Chemical Repository. The FDA-approved anticancer drug set is available from the NCI Developmental Therapeutics Program. […] The stock solutions were prepared in dimethyl sulfoxide (DMSO, Sigma-Aldrich, St. Louis, MO, cat. D2650) at 800-fold the tested concentration and stored at -70 degrees C prior to their use. All drugs and investigational agents were tested over a range starting from a high concentration at or near the clinical Cmax and decreasing in half-log increments. If the clinical Cmax for an agent had not been determined, the highest concentration tested was 10 microM.
Cell Culture. All cells were maintained in an incubator at 37 degrees C and 5% CO2 with 95% humidity. The PDC lines were cultured according to standard operating procedures established by the NCI PDMR (https://pdmr.cancer.gov/sops/default.htm). All PDCs were thawed and cultured in Matrigel-coated flasks prepared with a working solution of 1X Ham's F-12 nutrient mix, without supplementation (Invitrogen, Waltham, MA, cat. 11765054), 100 U/mL penicillin-streptomycin (Invitrogen, cat. 15140122), and 2.5% Matrigel (Corning Inc., Corning, NY, cat. 354248) for the first three passages. The 354836-022-R-J1-PDC, 475296-252-R-J1-PDC, and 997726-040-R-J2-PDC lines were cultured in 6A media, which includes advanced DMEM/F-12 (Thermo Fisher Scientific, cat. 12634028), 10 mM HEPES (Thermo Fisher Scientific, cat. 15630080), 1X GlutaMAX supplement (Thermo Fisher Scientific, cat. 35050061), 0.1 mg/mL primocin (InvivoGen, San Diego, CA, cat. ant-pm-2), 10% defined fetal bovine serum, heat inactivated (HyClone Laboratories Inc., Logan, UT, cat. SH30070.03HI), 50% L-WRN conditioned media (ATCC, cat. CRL-3276), 1.25 mM N-Acetyl-L-cysteine (Sigma-Aldrich, cat. A9165), 10 mM nicotinamide (Sigma-Aldrich, cat. N0636), 1X B-27 supplement (Thermo Fisher Scientific, cat. 17504044), 1X N-2 supplement (Thermo Fisher Scientific, cat. 17502048), and 10 microM Y-27632 dihydrochloride (Tocris Bioscience, Bristol, United Kingdom, cat. 1254). The 624824-186-R-J2-PDC line was cultured in 6C/Colon 1B media, which includes all 6A media components plus 50 ng/mL human EGF recombinant protein (Thermo Fisher Scientific, cat. PHG0311). […]

[1] = second compound 0.0316 µM, first compound 0.0316 µM
[2] = second compound 0.0316 µM, first compound 0.1 µM
[3] = second compound 0.1 µM, first compound 0.0316 µM
[4] = second compound 0.1 µM, first compound 0.1 µM
[5] = second compound 0.316 µM, first compound 0.0316 µM
[6] = second compound 0.316 µM, first compound 0.1 µM
[7] = second compound 1 µM, first compound 0.0316 µM
[8] = second compound 1 µM, first compound 0.1 µM
[9] = second compound 0.00316 µM, first compound 0.0316 µM
[10] = second compound 0.00316 µM, first compound 0.1 µM
[11] = second compound 0.00316 µM, first compound 0.316 µM
[12] = second compound 0.00316 µM, first compound 1 µM
[13] = second compound 0.00316 µM, first compound 3.16 µM
[14] = second compound 0.00316 µM, first compound 10 µM
[15] = second compound 0.01 µM, first compound 0.0316 µM
[16] = second compound 0.01 µM, first compound 0.1 µM
[17] = second compound 0.01 µM, first compound 0.316 µM
[18] = second compound 0.01 µM, first compound 1 µM
[19] = second compound 0.01 µM, first compound 3.16 µM
[20] = second compound 0.01 µM, first compound 10 µM
[21] = second compound 0.0316 µM, first compound 0.316 µM
[22] = second compound 0.0316 µM, first compound 1 µM
[23] = second compound 0.0316 µM, first compound 3.16 µM
[24] = second compound 0.0316 µM, first compound 10 µM
[25] = second compound 0.1 µM, first compound 0.316 µM
[26] = second compound 0.1 µM, first compound 1 µM
[27] = second compound 0.1 µM, first compound 3.16 µM
[28] = second compound 0.1 µM, first compound 10 µM
[29] = second compound 0.316 µM, first compound 0.316 µM
[30] = second compound 0.316 µM, first compound 1 µM
[31] = second compound 0.316 µM, first compound 3.16 µM
[32] = second compound 0.316 µM, first compound 10 µM
[33] = second compound 1 µM, first compound 0.316 µM
[34] = second compound 1 µM, first compound 1 µM
[35] = second compound 1 µM, first compound 3.16 µM
[36] = second compound 1 µM, first compound 10 µM

CC(C)n1nc(-c2ccc3oc(N)nc3c2)c2c(N)ncnc21 + Cc1nc(NC(=O)N2CCCC2C(N)=O)sc1-c1ccnc(C(C)(C)C(F)(F)F)c1
IC50 (second compound 0.0316 µM): 72.6 nM
IC50 (second compound 0.1 µM): 60.8 nM
IC50 (second compound 0.316 µM): 52.5 nM
IC50 (second compound 1 µM): 26.7 nM
IC50 (second compound 3.16 µM): 9.07 nM
IC50 (second compound 10 µM): < 0.316 nM
viability, T/C (second compound 0.0316 µM, first compound 0.000316 µM): 106%
viability, T/C (second compound 0.0316 µM, first compound 0.001 µM): 94.2%
viability, T/C (second compound 0.0316 µM, first compound 0.00316 µM): 95.9%
viability, T/C (second compound 0.0316 µM, first compound 0.01 µM): 95.9%
viability, T/C [1]: 78.8%
viability, T/C [2]: 38.7%
viability, T/C (second compound 0.1 µM, first compound 0.000316 µM): 110%
viability, T/C (second compound 0.1 µM, first compound 0.001 µM): 87.2%
viability, T/C (second compound 0.1 µM, first compound 0.00316 µM): 99.3%
viability, T/C (second compound 0.1 µM, first compound 0.01 µM): 109%
viability, T/C [3]: 79%
viability, T/C [4]: 27.9%
viability, T/C (second compound 0.316 µM, first compound 0.000316 µM): 101%
viability, T/C (second compound 0.316 µM, first compound 0.001 µM): 98.9%
viability, T/C (second compound 0.316 µM, first compound 0.00316 µM): 82.3%
viability, T/C (second compound 0.316 µM, first compound 0.01 µM): 92.7%
viability, T/C [5]: 67.4%
viability, T/C [6]: 26.9%
viability, T/C (second compound 1 µM, first compound 0.000316 µM): 89%
viability, T/C (second compound 1 µM, first compound 0.001 µM): 93.2%
viability, T/C (second compound 1 µM, first compound 0.00316 µM): 86.3%
viability, T/C (second compound 1 µM, first compound 0.01 µM): 70.7%
viability, T/C [7]: 47%
viability, T/C [8]: 21.2%
viability, T/C (second compound 3.16 µM, first compound 0.000316 µM): 62.9%
viability, T/C (second compound 3.16 µM, first compound 0.001 µM): 68.3%
viability, T/C (second compound 3.16 µM, first compound 0.00316 µM): 64.6%
viability, T/C (second compound 3.16 µM, first compound 0.01 µM): 42.7%
viability, T/C (second compound 3.16 µM, first compound 0.0316 µM): 33.1%
viability, T/C (second compound 3.16 µM, first compound 0.1 µM): 6.08%
viability, T/C (second compound 10 µM, first compound 0.000316 µM): 37.5%
viability, T/C (second compound 10 µM, first compound 0.001 µM): 40.2%
viability, T/C (second compound 10 µM, first compound 0.00316 µM): 33.1%
viability, T/C (second compound 10 µM, first compound 0.01 µM): 21.7%
viability, T/C (second compound 10 µM, first compound 0.0316 µM): 12.8%
viability, T/C (second compound 10 µM, first compound 0.1 µM): 2.67%

C[C@@H](NC(=O)c1ncnc(N)c1Cl)c1ncc(C(=O)Nc2cc(C(F)(F)F)c(Cl)cn2)s1 + COc1c(OCCCN2CCOCC2)ccc2c3n(c(=NC(=O)c4cnc(N)nc4)nc12)CCN3
IC50 (second compound 0.00316 µM): > 10000 nM
IC50 (second compound 0.01 µM): > 10000 nM
IC50 (second compound 0.0316 µM): > 10000 nM
IC50 (second compound 0.1 µM): < 31.6 nM
IC50 (second compound 0.316 µM): < 31.6 nM
IC50 (second compound 1 µM): < 31.6 nM
viability, T/C [9]: 92.7%
viability, T/C [10]: 82.9%
viability, T/C [11]: 97.8%
viability, T/C [12]: 106%
viability, T/C [13]: 77.7%
viability, T/C [14]: 86.6%
viability, T/C [15]: 93.5%
viability, T/C [16]: 90.5%
viability, T/C [17]: 76.2%
viability, T/C [18]: 78.5%
viability, T/C [19]: 86.1%
viability, T/C [20]: 85%
viability, T/C [1]: 66.1%
viability, T/C [2]: 71.2%
viability, T/C [21]: 55.1%
viability, T/C [22]: 61.7%
viability, T/C [23]: 65.4%
viability, T/C [24]: 68.9%
viability, T/C [3]: 40.3%
viability, T/C [4]: 32.9%
viability, T/C [25]: 35.5%
viability, T/C [26]: 38.4%
viability, T/C [27]: 48%
viability, T/C [28]: 38.3%
viability, T/C [5]: 11.7%
viability, T/C [6]: 12.6%
viability, T/C [29]: 17.4%
viability, T/C [30]: 16%
viability, T/C [31]: 14.6%
viability, T/C [32]: 20.3%
viability, T/C [7]: 4.16%
viability, T/C [8]: 8.23%
viability, T/C [33]: 6.02%
viability, T/C [34]: 4.08%
viability, T/C [35]: 4.3%
viability, T/C [36]: 7.55%

C#Cc1c(F)ccc2cc(O)cc(-c3ncc4c(N5CC6CCC(C5)N6)nc(OCC56CCCN5CC(F)C6)nc4c3F)c12 (stereo unspecified) + CC(Nc1ccc2c(c1)OCCn1cc(N3C(=O)OCC3C(F)F)nc1-2)C(N)=O
IC50 (second compound 0.00316 µM): > 10000 nM
IC50 (second compound 0.01 µM): > 10000 nM
IC50 (second compound 0.0316 µM): > 10000 nM
IC50 (second compound 0.1 µM): > 10000 nM
IC50 (second compound 0.316 µM): > 10000 nM
IC50 (second compound 1 µM): > 10000 nM
viability, T/C [9]: 96.3%
viability, T/C [10]: 85.3%
viability, T/C [11]: 85.6%
viability, T/C [12]: 78.3%
viability, T/C [13]: 90.9%
viability, T/C [14]: 84.1%
viability, T/C [15]: 107%
viability, T/C [16]: 82.3%
viability, T/C [17]: 102%
viability, T/C [18]: 100%
viability, T/C [19]: 95.2%
viability, T/C [20]: 92.9%
viability, T/C [1]: 83.3%
viability, T/C [2]: 77.8%
viability, T/C [21]: 97.8%
viability, T/C [22]: 79%
viability, T/C [23]: 94.6%
viability, T/C [24]: 89.1%
viability, T/C [3]: 99.8%
viability, T/C [4]: 83%
viability, T/C [25]: 79%
viability, T/C [26]: 88.6%
viability, T/C [27]: 91.1%
viability, T/C [28]: 81.4%
viability, T/C [5]: 62.7%
viability, T/C [6]: 70.7%
viability, T/C [29]: 76.8%
viability, T/C [30]: 59.9%
viability, T/C [31]: 70.8%
viability, T/C [32]: 61.3%
viability, T/C [7]: 48.8%
viability, T/C [8]: 55.3%
viability, T/C [33]: 61.2%
viability, T/C [34]: 43.7%
viability, T/C [35]: 46.1%
viability, T/C [36]: 62.5%
